Test: DPPH radical scavenging antioxidant test
Assay type: biochemical
Conditions: 517 nm; for Inhibition (radical scavenging inhibition): 0.2 mL DPPH (0.75 mM), compound 3 μM in ethanol, 30 minutes in the dark
Procedure: The antioxidant activity of 6′-(2-bromophenyl)-2′-methoxy-3,4′-bipyridine-3′-carbonitrile was investigated by 2,2-diphenyl-1-picrylhydrazyl (DPPH) in vitro tests that employ vitamin C as the positive control.
The antioxidant properties of the 6′-(2-bromophenyl)-2′-methoxy-3,4′-bipyridine-3′-carbonitrile compound were studied by adding 0.2 mL DPPH (0.75 mM)) to 6′-(2-bromophenyl)-2′-methoxy-3,4′-bipyridine-3′-carbonitrile (3 μM) (4) in ethanol. After 30 minutes of incubation in the dark, the absorbance was read against a blank at 517 nm. Ascorbic acid (vitamin C) was used as standard antioxidants (positive control). A blank sample was prepared by 0.2 mL of DPPH in 3 mL ethanol. A negative control sample was run using ethanol instead of the sample. The radical scavenging inhibition was calculated using the following equation: […]
The antioxidant activity for the synthesized compound is listed in Table 1, using Vitamin C as a reference.

SMILES | Inhibition (radical scavenging inhibition) [%] | antioxidant potential compared to vitamin C (in words) (DPPH in vitro test, vitamin C as positive control)
COc1nc(-c2ccccc2Br)cc(-c2cccnc2)c1C#N [Product 4, 6′-(2-bromophenyl)-2′-methoxy-3,4′-bipyridine-3′-carbonitrile] | 50 | high potential as an antioxidant
O=C1O[C@H]([C@@H](O)CO)C(O)=C1O [vit c, Ascorbic acid, reference compound] | 74 | –
